# Experimental data: ChEMBL document CHEMBL2034889, “The design and synthesis of novel, potent and orally bioavailable N-aryl piperazine-1-carboxamide CCR2 antagonists with very high hERG selectivity” (Bioorg Med Chem Lett, 2012)
# Calls of active or inactive are those of the source. The rule behind the calls is not given here.
# How the values were obtained:
# [1] = target: T1, C-C chemokine receptor type 2 (Homo sapiens, UniProt P41597); test: Displacement of 125I-MCP1 from human CCR2 receptor expressed in human THP-1 cell membrane by SPA assay; type: cell membranes
# T1 sequence (P41597 whole entry): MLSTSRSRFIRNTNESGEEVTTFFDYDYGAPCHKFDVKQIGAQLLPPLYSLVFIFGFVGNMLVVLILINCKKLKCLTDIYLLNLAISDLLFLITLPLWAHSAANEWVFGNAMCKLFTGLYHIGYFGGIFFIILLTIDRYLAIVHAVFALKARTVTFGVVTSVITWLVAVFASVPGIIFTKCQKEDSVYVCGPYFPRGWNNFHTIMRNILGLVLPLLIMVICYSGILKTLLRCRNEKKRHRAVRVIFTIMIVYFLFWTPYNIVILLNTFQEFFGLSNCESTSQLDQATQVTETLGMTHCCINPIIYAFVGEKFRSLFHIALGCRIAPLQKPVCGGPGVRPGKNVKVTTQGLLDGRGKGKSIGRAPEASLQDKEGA
# [2] = target: T1, C-C chemokine receptor type 2; test: Antagonist activity at human CCR2 receptor expressed in human THP-1 cells assessed as inhibition of MCP1-induced Ca2+ flux by FLIPR analysis; type: functional, cell-based
# [3] = target: T2, Voltage-gated inwardly rectifying potassium channel KCNH2 (Homo sapiens, UniProt Q12809)
# T2 sequence (Q12809 whole entry): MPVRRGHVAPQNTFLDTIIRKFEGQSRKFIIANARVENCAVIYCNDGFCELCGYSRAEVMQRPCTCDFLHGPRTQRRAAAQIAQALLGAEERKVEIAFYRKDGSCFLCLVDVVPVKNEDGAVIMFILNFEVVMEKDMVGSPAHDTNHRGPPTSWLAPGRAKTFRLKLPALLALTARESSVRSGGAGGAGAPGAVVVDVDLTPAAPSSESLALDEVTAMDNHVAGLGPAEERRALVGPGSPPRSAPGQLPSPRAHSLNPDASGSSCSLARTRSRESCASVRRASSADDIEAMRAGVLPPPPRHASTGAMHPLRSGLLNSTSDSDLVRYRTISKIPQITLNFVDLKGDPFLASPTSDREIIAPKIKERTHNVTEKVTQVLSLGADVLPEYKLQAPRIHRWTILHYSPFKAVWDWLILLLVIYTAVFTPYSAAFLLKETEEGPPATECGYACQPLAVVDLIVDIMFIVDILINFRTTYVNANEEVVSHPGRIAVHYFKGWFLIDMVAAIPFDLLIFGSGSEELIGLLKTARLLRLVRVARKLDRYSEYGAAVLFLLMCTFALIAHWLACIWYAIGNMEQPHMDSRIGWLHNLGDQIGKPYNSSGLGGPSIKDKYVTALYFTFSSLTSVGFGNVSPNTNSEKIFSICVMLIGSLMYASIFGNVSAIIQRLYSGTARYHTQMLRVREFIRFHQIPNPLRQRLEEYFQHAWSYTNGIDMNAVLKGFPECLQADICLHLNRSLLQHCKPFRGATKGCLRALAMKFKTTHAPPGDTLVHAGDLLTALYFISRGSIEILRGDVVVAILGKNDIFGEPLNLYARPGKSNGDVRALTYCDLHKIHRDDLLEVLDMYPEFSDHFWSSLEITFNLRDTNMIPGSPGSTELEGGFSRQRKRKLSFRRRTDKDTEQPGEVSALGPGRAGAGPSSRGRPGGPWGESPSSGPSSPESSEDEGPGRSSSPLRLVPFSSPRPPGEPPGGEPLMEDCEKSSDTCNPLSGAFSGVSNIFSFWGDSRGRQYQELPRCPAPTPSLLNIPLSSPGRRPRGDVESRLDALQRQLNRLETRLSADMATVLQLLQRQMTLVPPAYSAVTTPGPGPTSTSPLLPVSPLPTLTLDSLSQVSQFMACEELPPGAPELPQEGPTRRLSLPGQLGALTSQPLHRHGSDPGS
# [4] = Intrinsic clearance in rat hepatocytes assessed per 10^6 cells; type: ADME, cell-based, Hepatocyte; conditions: read-out: CLH
# [5] = Intrinsic clearance in dog hepatocytes assessed per 10^6 cells; type: ADME, cell-based, Canis lupus familiaris, Hepatocyte; conditions: read-out: CLH
# [6] = Intrinsic clearance in human hepatocytes assessed per 10^6 cells; type: ADME, cell-based, Hepatocyte; conditions: read-out: CLH
# [7] = Clearance in rat at 4 umol/kg, iv; type: ADME, organism-based; conditions: in vivo
# [8] = Clearance in dog at 4 umol/kg, iv; type: ADME, organism-based, Canis lupus familiaris; conditions: in vivo
# [9] = Volume of distribution at steady state in rat at 4 umol/kg, iv; type: ADME, organism-based; conditions: in vivo, read-out: Vdss
# [10] = Volume of distribution at steady state in dog at 4 umol/kg, iv; type: ADME, organism-based, Canis lupus familiaris; conditions: in vivo, read-out: Vdss
# [11] = Half life in rat at 4 umol/kg, iv; type: ADME, organism-based; conditions: in vivo
# [12] = Half life in dog at 4 umol/kg, iv; type: ADME, organism-based, Canis lupus familiaris; conditions: in vivo
# [13] = Oral bioavailability in rat at 11 umol/kg; type: ADME, organism-based; conditions: in vivo
# [14] = Oral bioavailability in dog at 4 umol/kg; type: ADME, organism-based, Canis lupus familiaris; conditions: in vivo
# [15] = Lipophilicity, log D of the compound at pH 7.4; type: physicochemical; conditions: buffer
# [16] = Lipophilicity, log P of the compound at pH 7.4; type: physicochemical; conditions: buffer
# [17] = Dissociation constant, pKa of the compound; type: physicochemical
# [18] = Aqueous solubility of the compound; type: physicochemical; conditions: buffer
# [19] = target: T2, Voltage-gated inwardly rectifying potassium channel KCNH2; test: Inhibition of human ERG by electrophysiology assay
# [20] = target: T1, C-C chemokine receptor type 2; test: Antagonist activity at human CCR2 in human peripheral whole blood assessed as inhibition of MCP1-induced L-selectin shedding; type: functional, tissue-based; conditions: read-out: pA2 (converted)
# [21] = target: C-C chemokine receptor type 2 (Mus musculus, UniProt P51683); test: Antagonist activity at mouse CCR2 receptor expressed in human THP-1 cells assessed as inhibition of MCP1-induced Ca2+ flux by FLIPR analysis; type: functional, cell-based
# C-C chemokine receptor type 2 (Mus musculus, UniProt P51683), sequence (P51683 whole entry): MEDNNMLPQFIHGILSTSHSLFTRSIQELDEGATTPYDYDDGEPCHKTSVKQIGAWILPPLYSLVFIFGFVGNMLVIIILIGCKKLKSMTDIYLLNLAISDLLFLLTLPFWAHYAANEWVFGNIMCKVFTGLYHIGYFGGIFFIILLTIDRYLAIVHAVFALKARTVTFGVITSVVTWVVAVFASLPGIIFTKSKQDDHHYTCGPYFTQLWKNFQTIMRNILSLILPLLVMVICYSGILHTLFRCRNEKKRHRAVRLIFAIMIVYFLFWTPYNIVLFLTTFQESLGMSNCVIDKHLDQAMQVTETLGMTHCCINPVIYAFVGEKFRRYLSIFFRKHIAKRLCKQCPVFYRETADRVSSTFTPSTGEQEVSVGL
# [22] = target: T3, C-C chemokine receptor type 2 (Rattus norvegicus, UniProt O55193); test: Antagonist activity at rat CCR2 receptor expressed in human THP-1 cells assessed as inhibition of MCP1-induced Ca2+ flux by FLIPR analysis; type: functional, cell-based
# T3 sequence (O55193 whole entry): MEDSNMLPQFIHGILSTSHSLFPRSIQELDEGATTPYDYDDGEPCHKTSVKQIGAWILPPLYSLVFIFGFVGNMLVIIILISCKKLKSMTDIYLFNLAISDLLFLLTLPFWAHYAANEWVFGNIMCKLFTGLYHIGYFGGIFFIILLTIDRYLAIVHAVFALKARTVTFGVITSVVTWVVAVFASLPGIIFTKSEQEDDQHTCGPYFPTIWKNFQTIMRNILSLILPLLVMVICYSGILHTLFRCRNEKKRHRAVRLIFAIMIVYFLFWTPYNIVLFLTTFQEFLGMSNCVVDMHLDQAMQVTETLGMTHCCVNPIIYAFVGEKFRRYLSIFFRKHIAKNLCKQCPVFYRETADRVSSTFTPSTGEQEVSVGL
# [23] = Antagonist activity at dog CCR2 receptor expressed in human THP-1 cells assessed as inhibition of MCP1-induced Ca2+ flux by FLIPR analysis; type: functional, cell-based
# [24] = target: T4, C-C chemokine receptor type 1 (Homo sapiens) (UniProt P32246); test: Inhibition of human CCR1 by FLIPR analysis
# T4 sequence (whole entry): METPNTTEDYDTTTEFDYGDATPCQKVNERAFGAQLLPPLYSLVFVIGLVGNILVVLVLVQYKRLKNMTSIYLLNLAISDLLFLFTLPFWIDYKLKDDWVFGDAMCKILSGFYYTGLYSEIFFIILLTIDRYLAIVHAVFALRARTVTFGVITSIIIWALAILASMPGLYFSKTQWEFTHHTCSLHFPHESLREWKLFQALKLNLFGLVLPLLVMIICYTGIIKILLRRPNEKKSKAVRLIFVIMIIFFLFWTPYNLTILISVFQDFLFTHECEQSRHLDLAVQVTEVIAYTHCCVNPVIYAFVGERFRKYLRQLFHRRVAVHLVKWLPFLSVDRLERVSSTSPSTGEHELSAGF
# [25] = target: C-C chemokine receptor type 8 (Homo sapiens) (UniProt P51685); test: Inhibition of human CCR8 by FLIPR analysis
# C-C chemokine receptor type 8 (Homo sapiens), sequence (P51685 whole entry): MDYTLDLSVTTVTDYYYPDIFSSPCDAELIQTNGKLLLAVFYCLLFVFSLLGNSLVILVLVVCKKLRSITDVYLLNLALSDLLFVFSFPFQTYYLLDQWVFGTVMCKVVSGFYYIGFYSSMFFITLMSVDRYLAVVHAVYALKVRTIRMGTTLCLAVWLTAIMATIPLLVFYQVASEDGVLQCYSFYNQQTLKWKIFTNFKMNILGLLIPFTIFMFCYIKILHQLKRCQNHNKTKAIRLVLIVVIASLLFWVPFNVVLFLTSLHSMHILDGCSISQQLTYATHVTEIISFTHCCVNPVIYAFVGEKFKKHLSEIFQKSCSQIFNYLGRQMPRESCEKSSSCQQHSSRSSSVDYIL
# [26] = target: C-X-C chemokine receptor type 4 (Homo sapiens) (UniProt P61073); test: Inhibition of human CXCR4 by FLIPR analysis
# C-X-C chemokine receptor type 4 (Homo sapiens), sequence (P61073 whole entry): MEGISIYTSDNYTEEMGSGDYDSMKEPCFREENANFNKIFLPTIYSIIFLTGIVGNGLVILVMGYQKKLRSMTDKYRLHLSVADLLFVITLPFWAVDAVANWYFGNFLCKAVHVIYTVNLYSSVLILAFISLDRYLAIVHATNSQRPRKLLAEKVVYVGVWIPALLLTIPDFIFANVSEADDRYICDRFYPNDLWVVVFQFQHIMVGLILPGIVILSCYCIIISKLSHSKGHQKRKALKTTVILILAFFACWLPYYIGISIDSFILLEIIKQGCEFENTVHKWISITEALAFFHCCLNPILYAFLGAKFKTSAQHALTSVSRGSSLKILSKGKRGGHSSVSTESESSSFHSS
# [27] = target: T5, C-X-C chemokine receptor type 5 (Homo sapiens) (UniProt P32302); test: Inhibition of human CXCR5 by FLIPR analysis
# T5 sequence (whole entry): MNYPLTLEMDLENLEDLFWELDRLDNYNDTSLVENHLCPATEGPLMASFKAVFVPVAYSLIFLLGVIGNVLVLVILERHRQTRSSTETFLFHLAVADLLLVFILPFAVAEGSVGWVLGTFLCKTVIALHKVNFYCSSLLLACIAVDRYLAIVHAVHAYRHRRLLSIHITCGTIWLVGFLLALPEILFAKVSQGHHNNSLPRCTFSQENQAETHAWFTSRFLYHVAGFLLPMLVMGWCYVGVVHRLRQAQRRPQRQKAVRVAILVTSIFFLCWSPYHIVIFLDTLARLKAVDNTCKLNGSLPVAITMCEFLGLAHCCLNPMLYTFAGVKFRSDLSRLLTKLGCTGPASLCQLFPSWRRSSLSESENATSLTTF
# [28] = target: C-C chemokine receptor type 5 (Homo sapiens, UniProt P51681); test: Inhibition of human CCR5 by FLIPR analysis
# C-C chemokine receptor type 5, sequence (P51681 whole entry): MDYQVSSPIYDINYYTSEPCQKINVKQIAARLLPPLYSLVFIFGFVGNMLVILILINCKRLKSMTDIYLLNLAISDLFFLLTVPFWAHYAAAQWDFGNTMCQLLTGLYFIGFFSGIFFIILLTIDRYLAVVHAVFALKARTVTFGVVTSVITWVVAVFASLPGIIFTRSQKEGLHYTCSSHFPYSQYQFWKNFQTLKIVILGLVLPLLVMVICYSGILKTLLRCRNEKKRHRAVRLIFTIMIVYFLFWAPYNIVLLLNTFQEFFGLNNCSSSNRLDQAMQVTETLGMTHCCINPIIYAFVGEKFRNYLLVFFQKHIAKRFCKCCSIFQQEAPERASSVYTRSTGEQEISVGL
compound,measurement,setting,value
CCN1CCC[C@@H](C(=O)N2CCN(C(=O)Nc3ccc(Cl)c(Cl)c3)CC2)C1,IC50,[1],856 nM
same,IC50,[2],588 nM
CCN1CCNC(CN2CCN(C(=O)Nc3ccc(Cl)c(Cl)c3)CC2)C1 (racemic),IC50,[1],797 nM
same,IC50,[3],8900 nM
CN1CCN(C)C(C(=O)N2CCN(C(=O)Nc3ccc(Cl)c(Cl)c3)CC2)C1 (racemic),IC50,[1],5500 nM
same,IC50,[3],13000 nM
O=C(Nc1ccc(Cl)c(C(F)(F)F)c1)N1CCN(C[C@@H]2CCCN(C3CC3)C2)CC1,IC50,[1],35 nM
same,IC50,[2],421 nM
same,IC50,[3],6300 nM
O=C(Nc1ccc(Cl)c(Cl)c1)N1CCN(C[C@@H]2CCCN(CCCc3ccccc3)C2)CC1,IC50,[1],64 nM
same,IC50,[2],280 nM
same,IC50,[3],400 nM
O=C(Nc1ccc(Cl)cc1)N1CCN(C[C@@H]2CCCN(C3CC3)C2)CC1,IC50,[1],127 nM
same,IC50,[2],220 nM
same,IC50,[3],14000 nM
O=C(Nc1cccc(C(F)(F)F)c1)N1CCN(C[C@@H]2CCCN(C3CC3)C2)CC1,IC50,[1],98 nM
same,IC50,[2],578 nM
same,IC50,[3],13000 nM
CCN1CCCC(CN2CCN(C(=O)Nc3ccc(Cl)c(Cl)c3)CC2)C1 (racemic),IC50,[1],123 nM
same,IC50,[2],627 nM
same,IC50,[3],4300 nM
CC(C)N1CCN[C@@H](C(=O)N2CCN(C(=O)Nc3ccc(Cl)c(Cl)c3)CC2)C1,IC50,[1],3.5 nM
same,IC50,[2],5.8 nM
same,hepatocyte CLint,[4],< 2 µL/min/1e6 cells
same,hepatocyte CLint,[5],< 2 µL/min/1e6 cells
same,hepatocyte CLint,[6],< 2 µL/min/1e6 cells
same,clearance,[7],30 mL/min/kg
same,clearance,[8],17 mL/min/kg
same,Vd,[9],4 L/kg
same,Vd,[10],8.5 L/kg
same,half-life,[11],3 h
same,half-life,[12],9.1 h
same,bioavailability,[13],11%
same,bioavailability,[14],83%
same,logD,[15],2.21
same,logD,[16],2.7
same,pKa,[17],7.8
same,solubility,[18],> 3.1 mM
same,IC50,[19],60000 nM
same,Kb,[20],3.47 nM
same,IC50,[21],1200 nM
same,IC50,[22],200 nM
same,IC50,[23],1600 nM
same,inhibition,[24],inactive
same,inhibition,[25],inactive
same,inhibition,[26],inactive
same,inhibition,[27],inactive
same,IC50,[28],22 nM
same,IC50,[3],17000 nM
O=C(Nc1ccc(Cl)c(Cl)c1)N1CCN(C[C@@H]2CCCN(CCc3ccccc3)C2)CC1,IC50,[1],5 nM
same,IC50,[2],42 nM
CN1CCN[C@@H](C(=O)N2CCN(C(=O)Nc3ccc(Cl)c(Cl)c3)CC2)C1,IC50,[1],69 nM
same,IC50,[2],362 nM
same,IC50,[3],20000 nM
CCN1CCO[C@@H](CN2CCN(C(=O)Nc3ccc(Cl)c(Cl)c3)CC2)C1,IC50,[1],64 nM
same,IC50,[2],277 nM
same,IC50,[3],7900 nM
N#Cc1cccc(NC(=O)N2CCN(C[C@@H]3CCCN(C4CC4)C3)CC2)c1,IC50,[1],1050 nM
same,IC50,[2],5870 nM
CC(C)N1CCO[C@@H](CN2CCN(C(=O)Nc3ccc(Cl)c(Cl)c3)CC2)C1,IC50,[1],17 nM
same,IC50,[2],42 nM
same,IC50,[3],6300 nM
O=C(Nc1ccccc1)N1CCN(C[C@@H]2CCCN(C3CC3)C2)CC1,IC50,[1],710 nM
same,IC50,[2],> 3000 nM
COc1ccc(NC(=O)N2CCN(C[C@@H]3CCCN(C4CC4)C3)CC2)cc1,IC50,[1],1460 nM
CC(C)N1CCC[C@@H](CN2CCN(C(=O)Nc3ccc(Cl)c(Cl)c3)CC2)C1,IC50,[1],16 nM
same,IC50,[2],58 nM
same,logD,[15],1.62
same,logP,[16],4.2
same,pKa,[17],10
same,IC50,[3],1300 nM
O=C(Nc1ccc(Br)cc1)N1CCN(C[C@@H]2CCCN(C3CC3)C2)CC1,IC50,[1],58 nM
same,IC50,[2],162 nM
same,IC50,[3],7100 nM
CS(=O)(=O)c1cccc(NC(=O)N2CCN(C[C@@H]3CCCN(C4CC4)C3)CC2)c1,IC50,[1],> 10000 nM
